Laboratory results reported in PMC5861220, “The Cytochrome P450-Mediated Metabolism Alternation of Four Effective Lignans From Schisandra chinensis in Carbon Tetrachloride-Intoxicated Rats and Patients With Advanced Hepatocellular Carcinoma” (Frontiers in Pharmacology, 2018).
Where two headings read alike, the source gives them in different places.

How the values were obtained:
[1] = Identification of CYP450 isozymes in lignan metabolism, human liver microsomes (no inhibitor); assay type: in vitro ADME; details: human liver microsomes 0.5 mg/mL, 5 μM, Control (no inhibitor)
Protocol: (§1) The CYP450s involved in the metabolism of schisandrin, schisantherin A, deoxyshisandrin and γ-schisandrin in rat or human liver microsomes were confirmed by comparison of the metabolism ratio before and after the addition of selective inhibitors to CYP450 isozymes. […] The supernate was injected to HPLC-MS for analysis of the four lignans.

[2] = Transport across Caco-2 cell monolayer; assay type: in vitro ADME; details: human, Caco-2; for efflux ratio at 2 h, 5 μM / efflux ratio at 2 h, 10 μM / efflux ratio at 2 h, 50 μM: ER = Papp (BL → AP)/Papp(AP → BL)
Protocol: Caco-2 cell (passage 38) was used in the transport experiments. Cells were seeded on polycarbonate filters (12 mm diameter, pore size […]) at 1 × 10^5/cm^2. The cell monolayer was formed 21 days post seeding when the transepithelial electrical resistance (TEER) was above 1,000 Ω• cm^2. Three concentration levels (5, 10, and 50 μM) were set for the four schisandra lignans in the study. After preincubation for 1 h at 37°C, the solution of the four lignans was respectively added to the apical (0.4 mL) or basolateral (0.6 mL) chamber for absorptive (AP → BL) and secretive (BL → AP) permeability test. At the specified timepoints (0.5, 1, 1.5 and 2 h), 50 μL samples (n = 3) were withdrawn from receiver chamber, and meanwhile, 50 μL fresh buffer was added. The four lignans were determined by HPLC-MS method.
The efflux rate (ER) was calculated by the formula ER = Papp (BL → AP)/Papp(AP → BL).

CYP1A2 = target: T1, CYP1A2 (Rattus norvegicus, UniProt P04799); experiment: Lignan metabolism in rat liver microsomes with furafylline; assay type: in vitro ADME; details: 5 μM, + Furafylline 50 μM (CYP1A2)
T1 sequence (P04799 1-513): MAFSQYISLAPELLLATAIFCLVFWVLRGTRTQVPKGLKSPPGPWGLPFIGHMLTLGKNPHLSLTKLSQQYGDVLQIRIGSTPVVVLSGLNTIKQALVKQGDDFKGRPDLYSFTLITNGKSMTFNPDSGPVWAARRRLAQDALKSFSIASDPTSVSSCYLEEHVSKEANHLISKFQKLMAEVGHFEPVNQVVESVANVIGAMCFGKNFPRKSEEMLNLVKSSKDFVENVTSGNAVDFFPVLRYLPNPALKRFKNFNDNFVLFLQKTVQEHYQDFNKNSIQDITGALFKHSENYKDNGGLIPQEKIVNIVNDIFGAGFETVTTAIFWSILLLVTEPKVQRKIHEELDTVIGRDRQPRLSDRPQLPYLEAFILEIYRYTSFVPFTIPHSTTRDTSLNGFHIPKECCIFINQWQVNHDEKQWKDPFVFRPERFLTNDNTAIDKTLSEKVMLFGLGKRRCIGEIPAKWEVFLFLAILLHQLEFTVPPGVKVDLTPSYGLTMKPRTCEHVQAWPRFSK
Protocol: as §1

[3] = test system: rat intestine (jejunum segment); experiment: In situ intestinal perfusion of four lignans; assay type: in vivo; details: for Perfusate (Percent of the initial dose) / Plasma (Percent of the initial dose) / Intestine (Percent of the initial dose) / Pblood / Plumen: 50 μM, n = 3; for Perfusate (Percent of the initial dose): intestinal perfusion 60 min; for Plasma (Percent of the initial dose) / Intestine (Percent of the initial dose) / Rise of cumulative plasma amount: intestinal perfusion; for Plasma (Percent of the initial dose): mesenteric vein blood; for Increase of remaining amount in perfusate: intestinal autoperfusion (60 min), CCl4-treated rats vs control; for Rise of cumulative plasma amount: CCl4-intoxicated rats vs control
Protocol: The surgical procedures of intestinal perfusion were conducted according to those published reports (Savina et al., [1981]). Hank's balanced salt solution (HBSS, pH 7.4) with four schisandra lignans (50 μM) at 37°C was infused into the jejunum segment at rate of 0.3 mL/min. Phenol Red (50 μM) was added to serve as a nonabsorbable marker for measuring water flux. Blood samples from mesenteric vein and perfusate were collected at 5-min interval. The plasma separated by centrifugation and perfusate was stored at −20°C until HPLC-MS analysis.
The permeability of four lignans across the rat intestine was calculated based on the disappearance of parent drug from the lumen (Plumen) as well as the appearance of the drug in blood (Pblood) using the following equations (Singhal et al., [1998]):
(1) Plumen = −Q/2πrlLnCout/Cin
(1) Pblood = ΔMB/Δt/2πrl{C}
where r is the radius of the perfused intestinal lumen; l is the length of the segment; Q is the flow rate of perfusate; Cin is the concentration of drug at the start of perfusion; and Cout is the steady-state concentration of drug exiting the lumen. ΔMB/Δt is the rate of drug appearance in mesenteric blood; and {C} is the logarithmic mean concentration of drug in the lumen.

CYP3A4/5 = experiment: Lignan metabolism in human liver microsomes with ketoconazole; assay type: in vitro ADME; details: 5 μM
Protocol: as §1

CYP3A = experiment: Lignan metabolism in rat liver microsomes with ketoconazole; assay type: in vitro ADME; details: 5 μM, + Ketoconazole 100 μM (CYP3A)
Protocol: as §1

[4] = Pharmacokinetics of four lignans in rats after oral SC alcoholic extract; assay type: in vivo, rat; details: for AUC(0-t) / Cmax / half-life / CL/F / MRT last / Tmax: Sprague-Dawley, rat, plasma, po, 1.5 g/kg/day, oral SC alcoholic extract 1.5 g/kg/day for 4 days, n = 5; for CL/F: read-out: CLz/F (converted); for MRT last: read-out: MRT(0−t); for Tmax: read-out: Tmax
Protocol: The pharmacokinetic profiles of four lignans were studied in ALI rat after multiple oral administrations of SC alcoholic extract at dose of 1.5 g/kg/day. After the ALI rat was established, SC alcoholic extract suspended in 0.5% sodium carboxymethyl cellulose was given to ALI rats and the control via oral gavage once a day for 4 consecutive days. Before the last dosing, rats were fasted for 12 h while water was taken freely. Blood samples were collected at 0, 0.25, 0.5, 1, 2, 3, 4, 6, 8, 12, 24, 36, and 48 h after the last dosing. A cannula was surgically placed into the jugular vein for collection of blood samples (about 0.1 mL) and blood loss compensation using sterile isotonic saline in the pharmacokinetic study. Plasma was separated by centrifugation and stored at −20°C until analysis. Plasma concentrations of the four lignans were quantified using HPLC-MS analysis developed according to the reported method (Wang et al., [2008]).
Data fitting and pharmacokinetic parameter calculations were carried out using the Winnolin software. Non-compartmental analysis was used to calculate the pharmacokinetic parameters. Parameters, such as AUC and MRT, were calculated using statistical moment method.

Compound	Metabolism rate [1]	Papp A→B at 2 h, 5 μM [2]	Papp B→A at 2 h, 5 μM [2]	efflux ratio at 2 h, 5 μM [2]	Papp A→B at 2 h, 10 μM [2]	Papp B→A at 2 h, 10 μM [2]	efflux ratio at 2 h, 10 μM [2]	Papp A→B at 2 h, 50 μM [2]	Papp B→A at 2 h, 50 μM [2]	efflux ratio at 2 h, 50 μM [2]	Metabolism rate (CYP1A2)	Perfusate (Percent of the initial dose) ([3]; CCl4-intoxicated rats)	Plasma (Percent of the initial dose) ([3]; CCl4-intoxicated rats)	Intestine (Percent of the initial dose) ([3]; CCl4-intoxicated rats)	Pblood ([3]; CCl4-intoxicated rats)	Plumen ([3]; CCl4-intoxicated rats)	Perfusate (Percent of the initial dose) ([3]; Control rats)	Plasma (Percent of the initial dose) ([3]; Control rats)	Intestine (Percent of the initial dose) ([3]; Control rats)	Pblood ([3]; Control rats)	other results
COc1cc2c(c(OC)c1OC)-c1c(cc(OC)c(OC)c1OC)C[C@H](C)[C@@H](C)C2 [Deoxyshisandrin, deoxyshisandrin]	162.5 ± 15.6 nmol/min/mg	1.17 ± 0.13 ×10⁻⁶ cm/s	1.67 ± 0.14 ×10⁻⁶ cm/s	1.42	1.16 ± 0.04 ×10⁻⁶ cm/s	1.52 ± 0.16 ×10⁻⁶ cm/s	1.31	1.24 ± 0.17 ×10⁻⁶ cm/s	1.71 ± 0.51 ×10⁻⁶ cm/s	1.38	85.2 ± 7.6 nmol/min/mg	91.77 ± 1.59% of the initial dose	0.83 ± 0.06% of the initial dose	1.79 ± 0.41% of the initial dose	0.063 ± 0.018 × 10^−4 cm/s	2.270 ± 0.363 × 10^−4 cm/s	81.69 ± 1.77% of the initial dose	0.51 ± 0.03% of the initial dose	1.69 ± 0.30% of the initial dose	0.053 ± 0.009 × 10^−4 cm/s	Plumen ([3]; Control rats): 2.337 ± 0.211 × 10^−4 cm/s; Increase of remaining amount in perfusate [3]: about 10%; Rise of cumulative plasma amount [3]: ~63%; Metabolism rate (CYP3A4/5): 38.2 ± 4.3 nmol/min/mg; Metabolism rate (CYP3A): 20.0 ± 1.6 nmol/min/mg; Reduction of systemic clearance (CLz/F) ([4]; CCl4 intoxicated rats vs control rats): ~56%; AUC(0-t) ([4]; CCl4-intoxicated rats): 16400 ± 5020 ng·h/mL; Cmax ([4]; CCl4-intoxicated rats): 775 ± 239 ng/mL; half-life ([4]; CCl4-intoxicated rats): 13.1 ± 1.78 h; CL/F ([4]; CCl4-intoxicated rats): 35.5 mL/min/kg; MRT last ([4]; CCl4-intoxicated rats): 16.4 ± 1.02 h; Tmax ([4]; CCl4-intoxicated rats): 5.8 ± 2.86 h; AUC(0-t) ([4]; Control (normal) rats): 7880 ± 2810 ng·h/mL; Cmax ([4]; Control (normal) rats): 564 ± 318 ng/mL; half-life ([4]; Control (normal) rats): 11.5 ± 2.08 h; CL/F ([4]; Control (normal) rats): 80 mL/min/kg; MRT last ([4]; Control (normal) rats): 11.7 ± 0.97 h; Tmax ([4]; Control (normal) rats): 5 ± 2.24 h
COc1cc2c(c(OC)c1OC)-c1c(cc(OC)c(OC)c1OC)C[C@](C)(O)[C@@H](C)C2 [Schisandrin, schisandrin]	263.4 ± 22.5 nmol/min/mg	2.15 ± 0.56 ×10⁻⁶ cm/s	3.31 ± 0.59 ×10⁻⁶ cm/s	1.54	1.86 ± 0.17 ×10⁻⁶ cm/s	2.03 ± 0.11 ×10⁻⁶ cm/s	1.09	1.93 ± 0.2 ×10⁻⁶ cm/s	2.12 ± 0.17 ×10⁻⁶ cm/s	1.1	215.1 ± 26.5 nmol/min/mg	93.40 ± 1.05% of the initial dose	0.84 ± 0.06% of the initial dose	1.98 ± 0.13% of the initial dose	0.063 ± 0.008 × 10^−4 cm/s	2.420 ± 0.788 × 10^−4 cm/s	86.16 ± 1.39% of the initial dose	0.44 ± 0.06% of the initial dose	2.22 ± 0.96% of the initial dose	0.046 ± 0.008 × 10^−4 cm/s	Plumen ([3]; Control rats): 2.490 ± 0.141 × 10^−4 cm/s; Increase of remaining amount in perfusate [3]: about 10%; Rise of cumulative plasma amount [3]: about 91%; Metabolism rate (CYP3A4/5): 176.7 ± 27.6 nmol/min/mg; Metabolism rate (CYP3A): 172.9 ± 8.6 nmol/min/mg; AUC(0-t) ([4]; CCl4-intoxicated rats): 74700 ± 26300 ng·h/mL; Cmax ([4]; CCl4-intoxicated rats): 3980 ± 1530 ng/mL; half-life ([4]; CCl4-intoxicated rats): 7.74 ± 1.21 h; CL/F ([4]; CCl4-intoxicated rats): 6.61 mL/min/kg; MRT last ([4]; CCl4-intoxicated rats): 12.8 ± 0.25 h; Tmax ([4]; CCl4-intoxicated rats): 6.2 ± 2.05 h; AUC(0-t) ([4]; Control (normal) rats): 19800 ± 7490 ng·h/mL; Cmax ([4]; Control (normal) rats): 1370 ± 617 ng/mL; half-life ([4]; Control (normal) rats): 10.1 ± 4.12 h; CL/F ([4]; Control (normal) rats): 24.3 mL/min/kg; MRT last ([4]; Control (normal) rats): 11.1 ± 0.97 h; Tmax ([4]; Control (normal) rats): 6 h
